Measurements reported in the kinase profiling compilation of Christmann-Franck et al. (2016).

Legend:
Assay in all cases: radiometric filter-binding kinase assay, Kinase HotSpot
Conditions in all cases: compound 0.5 µM; ATP 10 µM
STK39 (human) = STK39 (human) (UniProt Q9UEW8)
GSG2 (human) = GSG2 (human) (UniProt Q8TF76)
MAPKAPK5 (human) = MAPKAPK5 (human) (UniProt Q8IW41)
MST1R (human) = MST1R (human) (UniProt Q04912)
RPS6KA6 KD1 KD2 (human) = RPS6KA6 KD1 KD2 (human) (UniProt Q9UK32)
CAMK1D (human) = CAMK1D (human) (UniProt Q8IU85)
STK33 (human) = STK33 (human) (UniProt Q9BYT3)
NLK (human) = NLK (human) (UniProt Q9UBE8)
TEC (human) = TEC (human) (UniProt P42680)
CDK4 CCND3 (human) = CDK4 CCND3 (human) (UniProt P30281+P11802)
OXSR1 (human) = OXSR1 (human) (UniProt O95747)
LCK (human) = LCK (human) (UniProt P06239)
EPHA7 (human) = EPHA7 (human) (UniProt Q15375)
PRKCZ (human) = PRKCZ (human) (UniProt Q05513)
HIPK2 (human) = HIPK2 (human) (UniProt Q9H2X6)
TAOK1 (human) = TAOK1 (human) (UniProt Q7L7X3)
ALK (human) = ALK (human) (UniProt Q9UM73)
DYRK3 (human) = DYRK3 (human) (UniProt O43781)
SRC (human) = SRC (human) (UniProt P12931)
PHKG1 (human) = PHKG1 (human) (UniProt Q16816)
MAP4K5 (human) = MAP4K5 (human) (UniProt Q9Y4K4)
MARK1 (human) = MARK1 (human) (UniProt Q9P0L2)
AKT1 (human) = AKT1 (human) (UniProt P31749)
ROS1 (human) = ROS1 (human) (UniProt P08922)
CSF1R (human) = CSF1R (human) (UniProt P07333)
TSSK1B (human) = TSSK1B (human) (UniProt Q9BXA7)
FLT1 (human) = FLT1 (human) (UniProt P17948)
TAOK2 (human) = TAOK2 (human) (UniProt Q9UL54)
PAK4 (human) = PAK4 (human) (UniProt O96013)
FRK (human) = FRK (human) (UniProt P42685)
MINK1 (human) = MINK1 (human) (UniProt Q8N4C8)
ZAP70 (human) = ZAP70 (human) (UniProt P43403)
NEK9 (human) = NEK9 (human) (UniProt Q8TD19)
PKN2 (human) = PKN2 (human) (UniProt Q16513)
EPHA1 (human) = EPHA1 (human) (UniProt P21709)
CAMK4 (human) = CAMK4 (human) (UniProt Q16566)
MUSK (human) = MUSK (human) (UniProt O15146)
ACVRL1 (human) = ACVRL1 (human) (UniProt P37023)
GSK3A (human) = GSK3A (human) (UniProt P49840)
MAPKAPK3 (human) = MAPKAPK3 (human) (UniProt Q16644)
EPHA3 (human) = EPHA3 (human) (UniProt P29320)
GRK7 (human) = GRK7 (human) (UniProt Q8WTQ7)
Sequence of GRK7 (human) (Q8WTQ7 whole entry, looked up): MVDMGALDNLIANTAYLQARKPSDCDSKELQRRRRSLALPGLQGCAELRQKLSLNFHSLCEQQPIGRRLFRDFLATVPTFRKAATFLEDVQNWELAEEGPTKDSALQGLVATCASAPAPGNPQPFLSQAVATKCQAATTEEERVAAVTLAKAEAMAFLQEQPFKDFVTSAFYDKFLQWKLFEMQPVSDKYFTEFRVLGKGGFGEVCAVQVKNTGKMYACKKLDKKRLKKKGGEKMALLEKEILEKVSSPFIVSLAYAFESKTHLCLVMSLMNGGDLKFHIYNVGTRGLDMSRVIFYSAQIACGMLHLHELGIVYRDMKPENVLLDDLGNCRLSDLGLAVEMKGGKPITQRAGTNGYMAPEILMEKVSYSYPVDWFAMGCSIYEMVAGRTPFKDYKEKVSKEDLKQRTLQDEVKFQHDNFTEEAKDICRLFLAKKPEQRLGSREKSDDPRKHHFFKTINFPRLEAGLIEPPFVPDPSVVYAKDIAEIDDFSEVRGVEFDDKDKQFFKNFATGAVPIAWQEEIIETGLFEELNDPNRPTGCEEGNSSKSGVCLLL

Sequence of STK33 (human) (Q9BYT3 whole entry, looked up): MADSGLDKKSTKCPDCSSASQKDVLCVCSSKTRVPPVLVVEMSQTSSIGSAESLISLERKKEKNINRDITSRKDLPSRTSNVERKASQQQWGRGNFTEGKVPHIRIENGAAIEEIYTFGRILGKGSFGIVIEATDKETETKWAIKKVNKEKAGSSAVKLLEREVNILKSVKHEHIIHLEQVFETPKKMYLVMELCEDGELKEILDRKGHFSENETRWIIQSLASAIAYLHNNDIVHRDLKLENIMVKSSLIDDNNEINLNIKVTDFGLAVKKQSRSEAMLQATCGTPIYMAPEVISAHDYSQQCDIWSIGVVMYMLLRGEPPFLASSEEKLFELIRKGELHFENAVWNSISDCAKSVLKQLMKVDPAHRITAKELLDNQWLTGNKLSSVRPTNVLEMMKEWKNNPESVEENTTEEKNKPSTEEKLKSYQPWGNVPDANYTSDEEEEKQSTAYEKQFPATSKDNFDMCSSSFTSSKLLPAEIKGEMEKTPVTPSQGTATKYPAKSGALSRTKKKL
Sequence of CAMK1D (human) (Q8IU85 whole entry, looked up): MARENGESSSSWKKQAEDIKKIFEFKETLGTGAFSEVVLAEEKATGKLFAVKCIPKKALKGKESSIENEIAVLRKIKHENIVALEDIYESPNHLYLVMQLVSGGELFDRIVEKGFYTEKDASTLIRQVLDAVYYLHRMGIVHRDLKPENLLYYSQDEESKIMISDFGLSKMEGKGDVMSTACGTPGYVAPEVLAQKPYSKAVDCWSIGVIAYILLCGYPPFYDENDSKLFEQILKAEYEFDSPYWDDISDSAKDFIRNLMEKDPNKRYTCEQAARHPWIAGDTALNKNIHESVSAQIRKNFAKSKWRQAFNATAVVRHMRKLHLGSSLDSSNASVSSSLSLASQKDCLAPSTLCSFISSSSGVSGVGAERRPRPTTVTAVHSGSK
Sequence of TAOK2 (human) (Q9UL54 whole entry, looked up): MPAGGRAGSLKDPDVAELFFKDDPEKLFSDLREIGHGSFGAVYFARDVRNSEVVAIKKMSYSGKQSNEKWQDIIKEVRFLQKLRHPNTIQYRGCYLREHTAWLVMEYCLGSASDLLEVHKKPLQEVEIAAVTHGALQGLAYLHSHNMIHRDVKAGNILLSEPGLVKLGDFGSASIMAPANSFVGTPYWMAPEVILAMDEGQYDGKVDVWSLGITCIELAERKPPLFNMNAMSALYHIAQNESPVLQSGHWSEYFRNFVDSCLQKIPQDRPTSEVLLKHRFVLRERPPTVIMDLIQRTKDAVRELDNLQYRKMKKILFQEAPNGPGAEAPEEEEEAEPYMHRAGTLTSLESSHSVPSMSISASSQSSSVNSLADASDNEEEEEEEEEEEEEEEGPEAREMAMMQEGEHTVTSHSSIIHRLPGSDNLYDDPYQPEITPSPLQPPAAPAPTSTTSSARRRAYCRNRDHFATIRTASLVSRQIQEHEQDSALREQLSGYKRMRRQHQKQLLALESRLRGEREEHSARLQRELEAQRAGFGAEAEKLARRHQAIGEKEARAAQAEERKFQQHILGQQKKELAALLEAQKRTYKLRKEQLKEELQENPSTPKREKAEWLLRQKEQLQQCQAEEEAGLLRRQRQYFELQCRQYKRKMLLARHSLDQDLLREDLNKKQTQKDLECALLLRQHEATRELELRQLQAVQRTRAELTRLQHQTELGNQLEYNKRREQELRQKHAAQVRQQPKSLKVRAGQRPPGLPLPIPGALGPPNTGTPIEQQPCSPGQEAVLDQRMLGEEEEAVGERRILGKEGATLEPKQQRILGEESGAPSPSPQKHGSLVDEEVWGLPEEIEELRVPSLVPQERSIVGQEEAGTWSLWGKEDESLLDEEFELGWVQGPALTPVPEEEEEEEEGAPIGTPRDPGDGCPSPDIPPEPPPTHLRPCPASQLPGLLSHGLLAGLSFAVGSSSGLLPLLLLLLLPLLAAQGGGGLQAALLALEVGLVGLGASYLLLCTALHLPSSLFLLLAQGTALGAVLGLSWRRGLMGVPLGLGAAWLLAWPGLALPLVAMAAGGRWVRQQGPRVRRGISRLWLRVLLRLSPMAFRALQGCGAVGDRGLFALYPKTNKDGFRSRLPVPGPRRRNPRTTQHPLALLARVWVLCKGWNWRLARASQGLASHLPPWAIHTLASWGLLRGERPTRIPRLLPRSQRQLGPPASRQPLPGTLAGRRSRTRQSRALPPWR
Sequence of TEC (human) (P42680 whole entry, looked up): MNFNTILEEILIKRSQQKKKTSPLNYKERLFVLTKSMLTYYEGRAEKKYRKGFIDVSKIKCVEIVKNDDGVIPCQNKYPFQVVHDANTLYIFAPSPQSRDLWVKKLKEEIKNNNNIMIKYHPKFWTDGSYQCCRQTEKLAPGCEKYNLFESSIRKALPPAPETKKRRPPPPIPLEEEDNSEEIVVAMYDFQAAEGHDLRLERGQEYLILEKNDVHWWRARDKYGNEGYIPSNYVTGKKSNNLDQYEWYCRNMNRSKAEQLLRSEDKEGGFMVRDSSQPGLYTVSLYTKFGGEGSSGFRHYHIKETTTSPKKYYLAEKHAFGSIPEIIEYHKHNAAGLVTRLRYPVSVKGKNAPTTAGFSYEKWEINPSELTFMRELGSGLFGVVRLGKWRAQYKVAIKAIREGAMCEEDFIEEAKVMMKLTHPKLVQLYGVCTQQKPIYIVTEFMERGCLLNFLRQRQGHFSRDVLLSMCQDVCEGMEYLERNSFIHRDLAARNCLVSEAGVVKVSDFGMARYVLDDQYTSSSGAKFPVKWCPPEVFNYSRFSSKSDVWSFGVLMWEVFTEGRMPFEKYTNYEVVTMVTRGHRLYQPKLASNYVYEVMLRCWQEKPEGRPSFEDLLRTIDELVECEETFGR
Sequence of PHKG1 (human) (Q16816 whole entry, looked up): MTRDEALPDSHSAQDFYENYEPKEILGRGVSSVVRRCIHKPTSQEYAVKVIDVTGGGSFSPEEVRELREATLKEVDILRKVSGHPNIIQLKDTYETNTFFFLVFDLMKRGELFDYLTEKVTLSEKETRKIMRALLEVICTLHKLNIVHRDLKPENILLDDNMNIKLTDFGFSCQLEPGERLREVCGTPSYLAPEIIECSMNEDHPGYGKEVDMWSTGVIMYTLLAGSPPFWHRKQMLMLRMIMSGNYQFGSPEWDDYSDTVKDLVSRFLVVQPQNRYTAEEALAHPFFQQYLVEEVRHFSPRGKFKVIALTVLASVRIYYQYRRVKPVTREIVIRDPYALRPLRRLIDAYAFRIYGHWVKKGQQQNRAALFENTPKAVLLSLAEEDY
Sequence of OXSR1 (human) (O95747 whole entry, looked up): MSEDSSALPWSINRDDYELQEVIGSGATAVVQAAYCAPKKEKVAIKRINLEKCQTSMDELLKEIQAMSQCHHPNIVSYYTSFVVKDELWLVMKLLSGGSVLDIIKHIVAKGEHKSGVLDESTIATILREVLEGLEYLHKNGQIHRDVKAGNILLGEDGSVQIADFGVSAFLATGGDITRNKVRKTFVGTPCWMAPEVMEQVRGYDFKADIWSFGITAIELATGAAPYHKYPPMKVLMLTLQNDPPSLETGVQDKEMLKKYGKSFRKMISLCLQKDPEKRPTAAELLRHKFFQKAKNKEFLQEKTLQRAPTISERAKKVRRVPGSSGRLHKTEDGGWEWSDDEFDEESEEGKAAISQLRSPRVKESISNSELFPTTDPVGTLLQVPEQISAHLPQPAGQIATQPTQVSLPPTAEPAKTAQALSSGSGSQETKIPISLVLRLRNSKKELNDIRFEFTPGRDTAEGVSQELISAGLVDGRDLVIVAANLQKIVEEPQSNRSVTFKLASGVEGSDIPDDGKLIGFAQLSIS
Sequence of DYRK3 (human) (O43781 whole entry, looked up): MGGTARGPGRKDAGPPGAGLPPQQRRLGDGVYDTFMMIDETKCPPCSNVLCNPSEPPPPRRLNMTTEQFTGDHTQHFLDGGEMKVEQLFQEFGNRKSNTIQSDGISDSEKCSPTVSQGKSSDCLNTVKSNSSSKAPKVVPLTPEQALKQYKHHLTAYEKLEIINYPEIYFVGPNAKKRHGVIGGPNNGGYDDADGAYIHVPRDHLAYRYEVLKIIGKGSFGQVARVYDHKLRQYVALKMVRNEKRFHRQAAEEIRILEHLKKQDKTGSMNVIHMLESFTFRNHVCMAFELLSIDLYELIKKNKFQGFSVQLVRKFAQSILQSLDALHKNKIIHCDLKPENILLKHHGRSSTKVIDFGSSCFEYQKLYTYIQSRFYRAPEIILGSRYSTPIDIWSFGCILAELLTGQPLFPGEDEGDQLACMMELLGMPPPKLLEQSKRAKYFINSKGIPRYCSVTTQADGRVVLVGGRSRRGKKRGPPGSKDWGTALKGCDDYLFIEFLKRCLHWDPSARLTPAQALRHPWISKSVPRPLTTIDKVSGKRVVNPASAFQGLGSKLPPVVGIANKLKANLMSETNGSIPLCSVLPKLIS

With `Cc1cc2ncc(-c3ccccc3)nc2cc1C` the residual activity (STK39 (human)) was 103%, the residual activity (GSG2 (human)) was 91.5% and the residual activity (MAPKAPK5 (human)) was 95.1%. The residual activity (MST1R (human)) was 99.4%, the residual activity (RPS6KA6 KD1 KD2 (human)) was 98.2% and the residual activity (CAMK1D (human)) was 100%. For the same compound, the residual activity (STK33 (human)) was 94.1%, the residual activity (NLK (human)) was 92.8% and the residual activity (TEC (human)) was 98.1%. For the same compound, the residual activity (CDK4 CCND3 (human)) was 94.6%, the residual activity (OXSR1 (human)) was 85.6% and the residual activity (LCK (human)) was 99.5%. For the same compound, the residual activity (EPHA7 (human)) was 96.6%, the residual activity (PRKCZ (human)) was 88.6% and the residual activity (HIPK2 (human)) was 97%. For the same compound, the residual activity (TAOK1 (human)) was 94.3%, the residual activity (ALK (human)) was 98% and the residual activity (DYRK3 (human)) was 89.2%. For the same compound, the residual activity (SRC (human)) was 104%, the residual activity (PHKG1 (human)) was 97.4% and the residual activity (MAP4K5 (human)) was 89.3%. For the same compound, the residual activity (MARK1 (human)) was 106%, the residual activity (AKT1 (human)) was 101% and the residual activity (ROS1 (human)) was 100%. The residual activity (CSF1R (human)) was 82.1%, the residual activity (TSSK1B (human)) was 113% and the residual activity (FLT1 (human)) was 85.2%. The residual activity (TAOK2 (human)) was 105%, the residual activity (PAK4 (human)) was 105% and the residual activity (FRK (human)) was 99.1%. For the same compound, the residual activity (MINK1 (human)) was 91.8%, the residual activity (ZAP70 (human)) was 96.7% and the residual activity (NEK9 (human)) was 93.1%. It also gave a residual activity (PKN2 (human)) of 104%, a residual activity (EPHA1 (human)) of 99.9% and a residual activity (CAMK4 (human)) of 98.3%. It also gave a residual activity (MUSK (human)) of 102%, a residual activity (ACVRL1 (human)) of 97.9% and a residual activity (GSK3A (human)) of 104%. It also gave a residual activity (MAPKAPK3 (human)) of 100%, a residual activity (EPHA3 (human)) of 109% and a residual activity (GRK7 (human)) of 102%.
For `COc1ccc(-c2cnc3c(-c4ccsc4)cnn3c2)cc1`, the residual activity (STK39 (human)) was 95.1%, the residual activity (GSG2 (human)) was 77.2% and the residual activity (MAPKAPK5 (human)) was 90.7%. It also gave a residual activity (MST1R (human)) of 91.6%, a residual activity (RPS6KA6 KD1 KD2 (human)) of 90.7% and a residual activity (CAMK1D (human)) of 93.5%. For the same compound, the residual activity (STK33 (human)) was 71.6%, the residual activity (NLK (human)) was 74.5% and the residual activity (TEC (human)) was 124%. The residual activity (CDK4 CCND3 (human)) was 82.9%, the residual activity (OXSR1 (human)) was 90.3% and the residual activity (LCK (human)) was 81.6%. It also gave a residual activity (EPHA7 (human)) of 91.1%, a residual activity (PRKCZ (human)) of 107% and a residual activity (HIPK2 (human)) of 91.2%. It also gave a residual activity (TAOK1 (human)) of 105%, a residual activity (ALK (human)) of 80.4% and a residual activity (DYRK3 (human)) of 89.9%. It also gave a residual activity (SRC (human)) of 91.7%, a residual activity (PHKG1 (human)) of 73.2% and a residual activity (MAP4K5 (human)) of 60.3%. It also gave a residual activity (MARK1 (human)) of 98.9%, a residual activity (AKT1 (human)) of 92.4% and a residual activity (ROS1 (human)) of 98.8%. It also gave a residual activity (CSF1R (human)) of 53.6%, a residual activity (TSSK1B (human)) of 99.1% and a residual activity (FLT1 (human)) of 75.7%. For the same compound, the residual activity (TAOK2 (human)) was 97.4%, the residual activity (PAK4 (human)) was 72.5% and the residual activity (FRK (human)) was 85.6%. The residual activity (MINK1 (human)) was 63.7%, the residual activity (ZAP70 (human)) was 93.7% and the residual activity (NEK9 (human)) was 90.3%. The residual activity (PKN2 (human)) was 107%, the residual activity (EPHA1 (human)) was 91.5% and the residual activity (CAMK4 (human)) was 98.4%. It also gave a residual activity (MUSK (human)) of 74.9%, a residual activity (ACVRL1 (human)) of 76.4% and a residual activity (GSK3A (human)) of 92.5%. For the same compound, the residual activity (MAPKAPK3 (human)) was 97.5%, the residual activity (EPHA3 (human)) was 93.4% and the residual activity (GRK7 (human)) was 99.9%.
